Test results reported in the supplement of paper PMC5908809.

What was measured:
Assay in all cases: relative IC50 (inflection point of fitted viability curve, relative to fitted max inhibition); higher = less sensitive
Conditions in all cases: 72 h
[1] = test system: normal primary NK cells, pool 1 (3 donors), resting (IL-2 0 ng/mL)
Experimental: (§1)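 Drug sensitivity and resistance testing: 5 concentrations over a 10,000-fold range, 72 h at 37 °C, viability by CellTiter-Glo normalised to DMSO and benzethonium chloride controls. IC50 is the inflection point of a logistic fit (min fixed at 0, max fitted), so it is relative to the fitted maximal inhibition. Kept only where fitted max inhibition is at least 50%.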

IMC-1 (IL-2 20 ng/mL) = test system: IMC-1 (IL-2 20 ng/mL)
Experimental: as §1

[2] = test system: normal primary NK cells, pool 1 (3 donors) (IL-2 2.5 ng/mL)
Experimental: as §1

NKL (IL-2 2.5 ng/mL) = test system: NKL (IL-2 2.5 ng/mL)
Experimental: as §1

NK-92 (IL-2 2.5 ng/mL) = test system: NK-92 (IL-2 2.5 ng/mL)
Experimental: as §1

[3] = test system: normal primary NK cells, pool 3 (3 donors) (IL-2 2.5 ng/mL)
Experimental: as §1

NK-YS (IL-2 2.5 ng/mL) = test system: NK-YS (IL-2 2.5 ng/mL)
Experimental: as §1

KAI3 (IL-2 2.5 ng/mL) = test system: KAI3 (IL-2 2.5 ng/mL)
Experimental: as §1

SNK-6 (IL-2 2.5 ng/mL) = test system: SNK-6 (IL-2 2.5 ng/mL)
Experimental: as §1

KHYG-1 (IL-2 2.5 ng/mL) = test system: KHYG-1 (IL-2 2.5 ng/mL)
Experimental: as §1

DERL-7 (IL-2 2.5 ng/mL) = test system: DERL-7 (IL-2 2.5 ng/mL)
Experimental: as §1

YT (IL-2 2.5 ng/mL) = test system: YT (IL-2 2.5 ng/mL)
Experimental: as §1

[4] = test system: normal primary NK cells, pool 2 (3 donors) (IL-2 2.5 ng/mL)
Experimental: as §1

SMILES | relative IC50 [1] [µM] | relative IC50 (IMC-1 (IL-2 20 ng/mL)) [µM] | relative IC50 [2] [µM] | relative IC50 (NKL (IL-2 2.5 ng/mL)) [µM] | relative IC50 (NK-92 (IL-2 2.5 ng/mL)) [µM] | relative IC50 [3] [µM] | relative IC50 (NK-YS (IL-2 2.5 ng/mL)) [µM] | relative IC50 (KAI3 (IL-2 2.5 ng/mL)) [µM] | relative IC50 (SNK-6 (IL-2 2.5 ng/mL)) [µM] | relative IC50 (KHYG-1 (IL-2 2.5 ng/mL)) [µM] | relative IC50 (DERL-7 (IL-2 2.5 ng/mL)) [µM] | relative IC50 (YT (IL-2 2.5 ng/mL)) [µM] | relative IC50 [4] [µM]
CCc1cncnc1N1CCN(Cc2nc3ccc(C(F)(F)F)cc3[nH]2)CC1 | 1.82 | 2.14 | 1.79 | 1.84 | 1.46 |  |  |  |  |  |  |  | 
CN1CCC(COc2cnc(-c3cccc(Cn4nc(-c5cccc(C#N)c5)ccc4=O)c3)nc2)CC1 |  | > 1 |  |  |  | > 1 | > 1 | > 1 |  |  |  |  | 
COCC(=O)NC/C=C/c1ccc2ncnc(Nc3ccc(Oc4ccc(C)nc4)c(C)c3)c2c1 | 0.834 | 2.92 |  | 2.07 | 1.47 |  |  | 1.87 | 3.27 |  |  |  | 
C[C@@]1(C(=O)Nc2ccc(F)nc2)CCCN1c1nc(Nc2cc(C3CC3)n[nH]2)c2cccn2n1 | 3.42 | 2.85 |  |  | 0.617 |  | 0.412 |  | 0.63 | 1.15 | 0.29 | 0.904 | 
Cc1cnc(Nc2ccc(OCCN3CCCC3)cc2)nc1Nc1cccc(S(=O)(=O)NC(C)(C)C)c1 | 0.715 |  | 0.262 | 0.112 | 1.33 |  | 0.534 | 0.203 | 0.876 | 0.262 | 0.233 | 0.977 | 
Cn1cc(-c2ccc3nnc(C(F)(F)c4ccc5ncccc5c4)n3n2)cn1 | > 10 |  |  |  |  |  |  |  |  |  |  |  | 
N#Cc1ccc(COC[C@H]2O[C@@H](n3c(NCc4ccc(Cl)c(Cl)c4)nc4c(N)ncnc43)[C@H](O)[C@@H]2O)cc1 |  | 3.86 |  |  |  | > 10 | 1.31 |  | 1.15 | 1.81 |  | 1.71 | 
Cc1sc2c(c1C)C(c1ccc(Cl)cc1)=N[C@@H](CC(=O)OC(C)(C)C)c1nnc(C)n1-2 [(+)JQ1] | 1.08 |  | 0.546 | 0.113 |  |  | 0.231 | 0.362 | 0.215 | 0.165 | 0.0769 | 0.238 | 
Cc1ccccc1C(C(=O)NC1CCCCC1)N(C(=O)Cn1ccnc1C)c1cccc(F)c1 (centres undefined) [AGI-5198] |  |  | > 10 |  |  |  |  |  |  |  |  |  | 
C[C@@H](Nc1cc(F)cc(F)c1)c1cc(C(=O)N(C)C)cc2c(=O)cc(N3CCOCC3)oc12 [AZD-8186] |  | > 1 |  | > 1 |  | > 1 |  |  |  |  |  |  | 
CCN1CCN(Cc2ccc(Nc3ncc(F)c(-c4cc(F)c5nc(C)n(C(C)C)c5c4)n3)nc2)CC1 [Abemaciclib] | > 2.5 | 0.978 |  |  |  |  | 0.446 |  |  | 0.236 | 0.13 |  | 0.743
CCc1cc2c(cc1N1CCC(N3CCOCC3)CC1)C(C)(C)c1[nH]c3cc(C#N)ccc3c1C2=O [Alectinib] |  |  |  |  |  | > 1 |  |  | > 1 |  |  |  | 
O=C1CN2Cc3c(ccc(Cl)c3Cl)N=C2N1 [Anagrelide] |  |  |  |  |  | > 10 |  |  |  |  |  |  | 
CC[C@@H]1C(=O)N(C)c2cnc(Nc3ccc(C(=O)NC4CCN(C)CC4)cc3OC)nc2N1C1CCCC1 [BI 2536] |  | 0.0148 |  | 0.00981 | 0.0114 |  | 0.0135 | 0.00837 | 0.00457 | 0.0221 | 0.00862 | 0.0263 | 0.218
O=C(Nc1cccc(Nc2ncc(Br)c(NCCc3cnc[nH]3)n2)c1)N1CCCC1 [BX-912] |  | 0.735 | 1.27 | 1.01 | 1.17 | 1.42 | 1.85 | 0.474 | 0.482 | 0.507 | 1.06 | 1.51 | 1.17
CC[C@H](NC(=O)[C@H](C)NC)C(=O)N1C[C@@H](O)C[C@H]1Cc1c(-c2[nH]c3cc(F)ccc3c2C[C@@H]2C[C@H](O)CN2C(=O)[C@H](CC)NC(=O)[C@H](C)NC)[nH]c2cc(F)ccc12 [Birinapant] | 0.338 |  | 0.311 |  |  |  | > 1 |  | > 1 |  |  |  | 0.278
Nc1cc(C(F)(F)F)c(-c2cc(N3CCOCC3)nc(N3CCOCC3)n2)cn1 [Buparlisib] |  | 3.9 |  | 0.269 | 0.734 |  | 0.52 | 0.887 | 0.0429 | 0.781 | 1.07 | 1.21 | 
CS(=O)(=O)OCCCCOS(C)(=O)=O [Busulfan] |  | 26.9 |  | 27.3 | 36.4 |  | 29.6 | 24.6 | 15.8 | 26.6 |  |  | 35.6
CC[C@@]1(O)C(=O)OCc2c1cc1n(c2=O)Cc2cc3ccccc3nc2-1 [Camptothecin] |  | 0.0142 |  | 0.00147 | 0.00592 | 0.278 | 0.00356 | 0.00088 | 0.0031 | 0.00495 | 0.00921 | 0.0184 | 0.547
O=C(O)C1(C(=O)O)CCC1.[NH2-].[NH2-].[Pt+2] [Carboplatin] |  | 8.07 |  |  |  | 16 |  |  |  |  |  |  | 16.6
COc1cc2c(Oc3ccc4[nH]c(C)cc4c3F)ncnc2cc1OCCCN1CCCC1 [Cediranib] |  |  |  |  |  | > 1 |  |  |  |  |  |  | 
O=P1(N(CCCl)CCCl)NCCCO1 (centres undefined) [Cyclophosphamide] | 5.79 | > 40 |  |  |  |  |  |  |  | > 40 |  | > 40 | 
CC(=O)O[C@@]12CO[C@@H]1C[C@H](O)[C@@]1(C)C(=O)[C@H](O)C3=C(C)[C@@H](OC(=O)[C@H](O)[C@@H](NC(=O)OC(C)(C)C)c4ccccc4)C[C@@](O)([C@@H](OC(=O)c4ccccc4)[C@H]21)C3(C)C [Docetaxel] |  | 0.00314 |  | 0.00184 | 0.0109 |  | 0.00202 | 0.00214 | 0.0008 | 0.0039 | 0.00318 | 0.00224 | 
